# Assays:
# [1] = Polymorph stability of P-1167 forms 1 and 2; format: physicochemical; conditions: P-1167 form 1 versus form 2
# Source text: Propane-1-sulfonic acid {3-[5-(4-chloro-phenyl)-1H-pyrrolo[2,3-b]pyridine-3-carbonyl]-2,4-difluoro-phenyl}-amide (P-1167) may be prepared according to methods known in the art, for example, using methods described in U.S. patent application Ser. No. 11/473,347 (see also, PCT publication WO2007002433), the disclosure of which is hereby incorporated by reference. Compound P-1167 can exist in polymorphic forms, for example as polymorphic forms 1 or 2, where such polymorphic forms may be isolated as the substantially pure polymorph. The desired polymorphic form may be prepared, for example, by using appropriate crystallization conditions. For example, Form 1 was isolated by recrystallization from acetone/absolute ethanol (e.g. 1:1 to 5:1, preferably 2:1 by volume). […] The substantially pure isolated polymorphic forms were characterized by X-Ray Powder Diffraction (XRPD), differential scanning calorimetry (DSC) and infrared spectroscopy.
# [2] = Rat PK study of P-1496 free base, arginine and lysine complex; format: in vivo, Sprague-Dawley rats; parameters: AUC∞/dose: unit not given here; conditions: for AUC∞/dose / Cmax/dose: Table 10B, rats; for biopharmaceutical properties, comparison in words: rat PK, relative to P-1496 free base
# Experimental: A PK study was carried out in Sprague-Dawley rats on the arginine or lysine complex of propane-1-sulfonic acid {2,4-difluoro-3-[5-(2-methoxy-pyrimidin-5-yl)-1H-pyrrolo[2,3-b]pyridine-3-carbonyl]-phenyl}-amide P-1496 (Murigenics, Berkeley, Calif.), dosing via […], with sampling of approximately 250 μL of blood via jugular veing in Lithium heparin tubes at 30 minutes, 1, 3, 6, 8, 12, 24, 36 and 48 hours. Blood samples were centrifuged at 4° C. for 10 minutes at RCF of 1,000, plasma was stored at […] and shipped frozen for analytical analysis (Integrated Analytical Solutions, Inc., Berkeley, Calif.).
# Solid formulations were taken up in PEG400:water at 200 mg/cc for free base, arginine, and lysine complexes, and also at 400 mg/cc for lysine complex and dosed by oral gavage 10 mL/kg to provide the P-1496 doses indicated in Table 10B.
# Kit = Kit (Homo sapiens, UniProt P10721); experiment: Kinase activity assay, Kit
# B-Raf V600E = B-Raf V600E (Homo sapiens, UniProt P15056, V600E); experiment: Kinase activity assay, B-Raf V600E; format: biochemical; conditions: read-out: activity toward kinase B-Raf V600E, IC50
# PI3Kδ = PI3Kδ (Homo sapiens, UniProt O00329); experiment: Kinase activity assay, PI3Kδ
# Src = Src (Homo sapiens, UniProt P12931); experiment: Kinase activity assay, Src
# PI3Kα = PI3Kα (Homo sapiens, UniProt P42336); experiment: Kinase activity assay, PI3Kα
# Fms = Fms (Homo sapiens, UniProt P07333); experiment: Kinase activity assay, Fms
# Kdr = Kdr (Homo sapiens, UniProt P35968); experiment: Kinase activity assay, Kdr
# B-Raf = B-Raf (Homo sapiens, UniProt P15056); experiment: Kinase activity assay, B-Raf; format: biochemical; conditions: read-out: activity toward kinase B-Raf, IC50
# PI3Kγ = PI3Kγ (Homo sapiens, UniProt P48736); experiment: Kinase activity assay, PI3Kγ
# A-Raf = target: T1, A-Raf (Homo sapiens, UniProt P10398); experiment: Kinase activity assay, A-Raf
# T1 sequence (P10398 1-606): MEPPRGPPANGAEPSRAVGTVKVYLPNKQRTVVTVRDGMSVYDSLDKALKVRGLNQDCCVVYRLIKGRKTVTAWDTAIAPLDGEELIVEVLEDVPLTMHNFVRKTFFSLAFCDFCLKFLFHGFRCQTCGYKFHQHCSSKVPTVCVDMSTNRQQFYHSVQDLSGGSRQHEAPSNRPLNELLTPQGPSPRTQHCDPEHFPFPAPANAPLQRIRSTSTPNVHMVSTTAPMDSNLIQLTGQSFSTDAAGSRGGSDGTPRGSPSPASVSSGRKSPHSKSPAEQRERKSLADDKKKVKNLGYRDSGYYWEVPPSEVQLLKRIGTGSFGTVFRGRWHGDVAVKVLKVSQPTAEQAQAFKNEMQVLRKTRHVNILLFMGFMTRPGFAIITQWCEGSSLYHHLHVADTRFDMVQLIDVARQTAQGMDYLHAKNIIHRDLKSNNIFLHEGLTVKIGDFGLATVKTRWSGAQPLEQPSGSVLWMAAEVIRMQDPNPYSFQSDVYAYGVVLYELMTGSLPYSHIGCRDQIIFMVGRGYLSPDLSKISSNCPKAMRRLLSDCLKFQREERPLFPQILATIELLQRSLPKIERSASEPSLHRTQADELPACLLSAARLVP
# C-Raf = C-Raf (Homo sapiens, UniProt P04049); experiment: Kinase activity assay, C-Raf
# MAP4K4 = MAP4K4 (Homo sapiens, UniProt O95819); experiment: Kinase activity assay, MAP4K4
# TrkA = TrkA (Homo sapiens, UniProt P04629); experiment: Kinase activity assay, TrkA
# [3] = Intrinsic dissolution rate in simulated gastric fluid (SGF) without enzyme; format: physicochemical; conditions: pellet, 254 nm
# Experimental: (§1) The intrinsic dissolution rate of a similarly prepared substantially amorphous arginine complex of P-1167 was compared to that of the form 2 polymorph in simulated gastric fluid (SGF) without enzyme and in simulated intestinal fluid (SIF). A pellet of test sample was dissolved in the appropriate fluid, and the UV absorbance as a function of time was measured at 254 nm (SGF) or 310 nm (SIF) and plotted. […] As such, significant improvement of dissolution of the arginine complex is shown, which is likely to be improved further by processing the complex to a completely amorphous form.
# [4] = Intrinsic dissolution rate in simulated intestinal fluid (SIF); format: physicochemical; conditions: pellet, 310 nm, versus form 2 polymorph free base
# Experimental: as §1
# [5] = dose 100, in PEG400:water by oral gavage 10 mL/kg
# [6] = dose 200, in PEG400:water by oral gavage 10 mL/kg
# Sequence of PI3Kγ (P48736 whole entry): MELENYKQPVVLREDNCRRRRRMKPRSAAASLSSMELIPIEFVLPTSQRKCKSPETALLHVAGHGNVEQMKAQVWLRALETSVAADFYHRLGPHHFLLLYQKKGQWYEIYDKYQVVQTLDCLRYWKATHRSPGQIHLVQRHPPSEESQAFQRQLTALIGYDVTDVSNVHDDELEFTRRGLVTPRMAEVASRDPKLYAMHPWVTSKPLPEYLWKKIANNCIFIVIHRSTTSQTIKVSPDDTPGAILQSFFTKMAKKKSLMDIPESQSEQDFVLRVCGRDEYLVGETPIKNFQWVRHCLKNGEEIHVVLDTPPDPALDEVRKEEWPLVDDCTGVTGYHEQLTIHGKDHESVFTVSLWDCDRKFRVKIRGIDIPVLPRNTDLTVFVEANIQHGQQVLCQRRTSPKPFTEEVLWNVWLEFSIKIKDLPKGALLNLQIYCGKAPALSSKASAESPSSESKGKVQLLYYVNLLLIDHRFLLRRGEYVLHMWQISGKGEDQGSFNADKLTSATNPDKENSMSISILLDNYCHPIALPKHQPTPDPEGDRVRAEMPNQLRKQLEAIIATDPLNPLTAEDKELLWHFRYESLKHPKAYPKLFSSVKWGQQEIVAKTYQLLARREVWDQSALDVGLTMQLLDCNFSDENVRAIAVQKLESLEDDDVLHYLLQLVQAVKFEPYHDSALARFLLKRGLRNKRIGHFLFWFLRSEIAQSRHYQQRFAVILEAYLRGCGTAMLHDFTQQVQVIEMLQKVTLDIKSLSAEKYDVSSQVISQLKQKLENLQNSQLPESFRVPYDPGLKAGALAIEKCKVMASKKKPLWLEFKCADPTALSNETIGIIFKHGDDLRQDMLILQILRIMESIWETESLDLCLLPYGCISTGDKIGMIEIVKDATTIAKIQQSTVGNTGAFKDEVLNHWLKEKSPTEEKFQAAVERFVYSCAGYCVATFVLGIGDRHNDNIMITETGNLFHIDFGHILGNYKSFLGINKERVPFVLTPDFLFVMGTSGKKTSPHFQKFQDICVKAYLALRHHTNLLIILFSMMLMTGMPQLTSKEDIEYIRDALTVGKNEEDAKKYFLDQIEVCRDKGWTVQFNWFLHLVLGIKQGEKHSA
# Sequence of PI3Kα (P42336 whole entry): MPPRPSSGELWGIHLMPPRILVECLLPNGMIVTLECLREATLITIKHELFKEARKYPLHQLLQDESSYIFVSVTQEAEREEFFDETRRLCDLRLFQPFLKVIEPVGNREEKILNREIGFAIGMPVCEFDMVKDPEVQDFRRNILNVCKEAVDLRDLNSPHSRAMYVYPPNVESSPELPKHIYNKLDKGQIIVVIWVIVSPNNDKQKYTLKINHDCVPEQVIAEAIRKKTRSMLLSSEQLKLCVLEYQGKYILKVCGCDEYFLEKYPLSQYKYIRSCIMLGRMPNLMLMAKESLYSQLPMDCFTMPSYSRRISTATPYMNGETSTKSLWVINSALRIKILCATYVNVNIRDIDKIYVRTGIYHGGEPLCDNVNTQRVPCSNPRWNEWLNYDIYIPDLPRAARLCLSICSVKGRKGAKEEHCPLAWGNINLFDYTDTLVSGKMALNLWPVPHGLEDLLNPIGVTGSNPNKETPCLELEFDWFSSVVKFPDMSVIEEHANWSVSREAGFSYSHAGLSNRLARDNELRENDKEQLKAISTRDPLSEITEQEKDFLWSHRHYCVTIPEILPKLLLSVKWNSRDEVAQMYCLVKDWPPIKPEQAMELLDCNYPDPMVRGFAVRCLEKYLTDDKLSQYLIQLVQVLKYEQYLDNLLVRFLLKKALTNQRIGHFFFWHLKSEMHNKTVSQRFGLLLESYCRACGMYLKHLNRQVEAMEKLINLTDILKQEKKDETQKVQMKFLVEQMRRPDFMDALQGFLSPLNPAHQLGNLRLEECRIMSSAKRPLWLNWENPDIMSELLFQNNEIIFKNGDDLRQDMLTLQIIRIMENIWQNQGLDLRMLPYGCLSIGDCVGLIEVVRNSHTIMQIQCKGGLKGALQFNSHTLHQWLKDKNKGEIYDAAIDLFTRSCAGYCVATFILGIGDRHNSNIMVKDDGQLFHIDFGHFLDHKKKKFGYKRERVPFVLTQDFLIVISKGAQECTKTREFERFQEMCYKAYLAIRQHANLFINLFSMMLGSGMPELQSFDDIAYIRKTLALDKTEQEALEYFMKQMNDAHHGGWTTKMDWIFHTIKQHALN
# Sequence of PI3Kα (P27986 whole entry partner): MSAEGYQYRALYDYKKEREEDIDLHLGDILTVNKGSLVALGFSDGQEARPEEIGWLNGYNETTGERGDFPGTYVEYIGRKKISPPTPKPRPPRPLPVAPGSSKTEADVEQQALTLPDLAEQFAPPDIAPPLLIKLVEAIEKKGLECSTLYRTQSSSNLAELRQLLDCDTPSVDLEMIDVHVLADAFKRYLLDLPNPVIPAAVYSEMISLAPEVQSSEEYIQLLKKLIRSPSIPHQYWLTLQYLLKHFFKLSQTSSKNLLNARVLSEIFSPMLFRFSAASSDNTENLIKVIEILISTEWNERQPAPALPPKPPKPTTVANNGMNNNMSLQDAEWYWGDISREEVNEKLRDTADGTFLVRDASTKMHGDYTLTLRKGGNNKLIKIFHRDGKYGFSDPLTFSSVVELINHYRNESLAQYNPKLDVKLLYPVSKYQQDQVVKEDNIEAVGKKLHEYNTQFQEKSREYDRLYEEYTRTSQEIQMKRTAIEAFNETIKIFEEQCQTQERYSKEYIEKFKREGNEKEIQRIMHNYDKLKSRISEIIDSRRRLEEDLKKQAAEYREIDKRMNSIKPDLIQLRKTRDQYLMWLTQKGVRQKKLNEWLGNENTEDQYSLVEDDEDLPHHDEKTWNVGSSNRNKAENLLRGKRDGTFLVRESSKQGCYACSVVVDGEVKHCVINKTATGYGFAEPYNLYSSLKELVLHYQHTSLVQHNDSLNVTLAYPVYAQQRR
# Sequence of Kdr (P35968 20-1356): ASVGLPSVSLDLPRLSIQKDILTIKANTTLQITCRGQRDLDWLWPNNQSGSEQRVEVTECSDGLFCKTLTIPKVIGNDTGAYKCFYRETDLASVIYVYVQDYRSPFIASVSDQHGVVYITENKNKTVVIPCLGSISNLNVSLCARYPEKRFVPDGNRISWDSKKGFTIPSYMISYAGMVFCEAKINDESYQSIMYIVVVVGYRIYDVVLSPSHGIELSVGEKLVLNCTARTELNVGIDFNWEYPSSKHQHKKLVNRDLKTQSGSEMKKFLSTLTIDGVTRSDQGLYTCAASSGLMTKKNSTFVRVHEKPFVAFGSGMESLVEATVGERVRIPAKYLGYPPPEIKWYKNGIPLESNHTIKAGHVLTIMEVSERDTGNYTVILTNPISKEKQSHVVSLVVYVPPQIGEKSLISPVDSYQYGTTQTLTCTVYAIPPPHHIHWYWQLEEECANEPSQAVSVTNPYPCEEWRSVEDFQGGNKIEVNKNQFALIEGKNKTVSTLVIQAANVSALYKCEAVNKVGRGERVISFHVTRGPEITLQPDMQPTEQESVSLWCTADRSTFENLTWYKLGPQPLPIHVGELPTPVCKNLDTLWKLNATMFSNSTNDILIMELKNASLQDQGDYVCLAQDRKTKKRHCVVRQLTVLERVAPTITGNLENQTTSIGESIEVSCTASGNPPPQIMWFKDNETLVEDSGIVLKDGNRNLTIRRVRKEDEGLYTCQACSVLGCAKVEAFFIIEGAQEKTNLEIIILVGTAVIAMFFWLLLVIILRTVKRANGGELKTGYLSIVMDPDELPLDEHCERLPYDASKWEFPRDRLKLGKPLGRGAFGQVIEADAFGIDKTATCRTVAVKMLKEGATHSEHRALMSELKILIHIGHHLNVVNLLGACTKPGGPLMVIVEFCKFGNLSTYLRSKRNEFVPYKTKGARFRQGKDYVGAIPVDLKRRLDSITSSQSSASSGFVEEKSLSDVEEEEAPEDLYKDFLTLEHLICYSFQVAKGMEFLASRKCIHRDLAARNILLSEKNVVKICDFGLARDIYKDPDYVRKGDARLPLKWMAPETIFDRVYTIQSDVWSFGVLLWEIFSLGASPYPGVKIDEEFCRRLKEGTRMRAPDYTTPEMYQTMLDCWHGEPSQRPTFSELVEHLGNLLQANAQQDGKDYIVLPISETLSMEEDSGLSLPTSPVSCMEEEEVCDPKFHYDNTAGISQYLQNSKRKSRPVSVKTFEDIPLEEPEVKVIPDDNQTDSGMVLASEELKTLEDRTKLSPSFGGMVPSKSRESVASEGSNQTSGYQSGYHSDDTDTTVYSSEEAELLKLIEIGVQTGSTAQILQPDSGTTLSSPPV
# Sequence of B-Raf V600E (P15056 whole entry V600E): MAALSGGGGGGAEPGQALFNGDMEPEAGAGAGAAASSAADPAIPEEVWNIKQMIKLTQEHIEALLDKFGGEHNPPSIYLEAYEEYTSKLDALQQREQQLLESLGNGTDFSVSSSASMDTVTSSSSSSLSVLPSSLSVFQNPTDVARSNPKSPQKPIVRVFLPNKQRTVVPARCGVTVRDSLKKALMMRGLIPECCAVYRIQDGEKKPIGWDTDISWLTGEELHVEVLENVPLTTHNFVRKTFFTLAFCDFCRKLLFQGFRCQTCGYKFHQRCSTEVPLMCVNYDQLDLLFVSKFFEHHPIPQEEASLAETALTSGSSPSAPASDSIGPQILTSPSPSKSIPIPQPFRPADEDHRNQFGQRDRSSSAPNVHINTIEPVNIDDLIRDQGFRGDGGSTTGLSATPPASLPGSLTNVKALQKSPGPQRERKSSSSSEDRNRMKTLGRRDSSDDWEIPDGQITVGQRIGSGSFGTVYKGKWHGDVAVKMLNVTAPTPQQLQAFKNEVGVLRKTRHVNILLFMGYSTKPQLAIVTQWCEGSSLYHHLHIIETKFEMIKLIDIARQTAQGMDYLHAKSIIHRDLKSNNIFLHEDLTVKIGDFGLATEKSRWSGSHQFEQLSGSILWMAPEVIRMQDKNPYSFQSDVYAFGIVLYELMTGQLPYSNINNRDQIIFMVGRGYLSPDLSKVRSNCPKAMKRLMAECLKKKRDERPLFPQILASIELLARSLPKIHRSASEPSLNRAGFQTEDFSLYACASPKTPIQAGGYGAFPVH
# Sequence of B-Raf (P15056 whole entry): as the sequence (P15056 whole entry V600E) above, with E600V counted along it
SMILES,"AUC∞/dose [2, 5]","Cmax/dose [2, 5]",IC50 (B-Raf V600E) [µM],IC50 (PI3Kα) [µM],IC50 (Kdr) [µM],IC50 (B-Raf) [µM],IC50 (PI3Kγ) [µM],further results
"CCCS(=O)(=O)Nc1ccc(F)c(C(=O)c2c[nH]c3ncc(-c4ccc(Cl)cc4)cc23)c1F [P-1167 Form 2, Propane-1-sulfonic acid {3-[5-(4-chloro-phenyl)-1H-pyrrolo[2,3-b]pyridine-3-carbonyl]-2,4-difluoro-phenyl}-amide]",–,–,–,–,–,–,–,relative stability of polymorphic forms [1]: more stable polymorph
"CCCS(=O)(=O)Nc1ccc(F)c(C(=O)c2c[nH]c3ncc(-c4cnc(OC)nc4)cc23)c1F [P-1496 arginine complex, propane-1-sulfonic acid {2,4-difluoro-3-[5-(2-methoxy-pyrimidin-5-yl)-1H-pyrrolo[2,3-b]pyridine-3-carbonyl]-phenyl}-amide]","3,620",159 (ng/mL)/(mg/kg),–,–,–,–,–,"biopharmaceutical properties, comparison in words [2]: improved biopharmaceutical properties"
"CCCS(=O)(=O)Nc1ccc(F)c(C(=O)c2c[nH]c3ncc(-c4cnc(OC)nc4)cc23)c1F [P-1496 free base, Propane-1-sulfonic acid {2,4-difluoro-3-[5-(2-methoxy-pyrimidin-5-yl)-1H-pyrrolo[2,3-b]pyridine-3-carbonyl]-phenyl}-amide]","1,970",106 (ng/mL)/(mg/kg),–,–,–,–,–,–
"CCCS(=O)(=O)Nc1ccc(F)c(C(=O)c2c[nH]c3ncc(-c4cnc(OC)nc4)cc23)c1F [P-1496 lysine complex, propane-1-sulfonic acid {2,4-difluoro-3-[5-(2-methoxy-pyrimidin-5-yl)-1H-pyrrolo[2,3-b]pyridine-3-carbonyl]-phenyl}-amide]","3,210",283 (ng/mL)/(mg/kg),–,–,–,–,–,"AUC∞/dose [2, 6]: 2,750; Cmax/dose [2, 6]: 155 (ng/mL)/(mg/kg); biopharmaceutical properties, comparison in words [2]: improved biopharmaceutical properties"
"CCCS(=O)(=O)Nc1ccc(F)c(C(=O)c2c[nH]c3ncc(-c4ccc(Cl)cc4)cc23)c1F [arginine complex of P-1167, propane-1-sulfonic acid {3-[5-(4-chloro-phenyl)-1H-pyrrolo[2,3-b]pyridine-3-carbonyl]-2,4-difluoro-phenyl}-amide]",–,–,–,–,–,–,–,time of maximum absorbance in SGF [3]: approximately 200 minutes; maximum UV absorbance in SGF (dissolution) ([3]; versus form 2 polymorph free base): substantially greater than the free base; UV absorbance in SIF (dissolution) [4]: substantially higher absorbance in SIF than the free base

# Now from value to molecule, other results behind:
"AUC∞/dose [2, 5]","Cmax/dose [2, 5]",IC50 (B-Raf V600E) [µM],IC50 (PI3Kα) [µM],IC50 (Kdr) [µM],IC50 (B-Raf) [µM],IC50 (PI3Kγ) [µM],SMILES,further results
–,–,≤ 10,≤ 10,≤ 10,–,–,"CCCS(=O)(=O)Nc1ccc(F)c(C(=O)c2c[nH]c3ncc(-c4cccc(S(=O)(=O)NC)c4)cc23)c1F [P-2170, 3-{3-[2,6-Difluoro-3-(propane-1-sulfonylamino)-benzoyl]-1H-pyrrolo[2,3-b]pyridin-5-yl}-N-methyl-benzenesulfonamide]",IC50 (Kit): ≤ 10 µM; IC50 (PI3Kδ): ≤ 10 µM; IC50 (Src): ≤ 10 µM; IC50 (Fms): ≤ 10 µM
–,–,≤ 10,≤ 10,≤ 10,≤ 10,≤ 10,CCCS(=O)(=O)Nc1ccc(F)c(C(=O)c2c[nH]c3ncc(-c4cncc(S(C)(=O)=O)c4)cc23)c1F [P-2188],IC50 (PI3Kδ): ≤ 10 µM
–,–,≤ 10,≤ 10,≤ 10,≤ 10,≤ 10,"CCCS(=O)(=O)Nc1ccc(F)c(C(=O)c2c[nH]c3ncc(-c4ccc(C(N)=O)nc4)cc23)c1F [P-2220, 5-{3-[2,6-Difluoro-3-(propane-1-sulfonylamino)-benzoyl]-1H-pyrrolo[2,3-b]pyridin-5-yl}-pyridine-2-carboxylic acid amide]",IC50 (A-Raf): ≤ 10 µM; IC50 (Kit): ≤ 10 µM; IC50 (Src): ≤ 10 µM; IC50 (C-Raf): ≤ 10 µM; IC50 (MAP4K4): ≤ 10 µM
–,–,≤ 10,≤ 10,–,≤ 10,≤ 10,"CCCS(=O)(=O)Nc1cccc(C(=O)c2c[nH]c3ncc(-c4cnc(OC)nc4)cc23)c1F [P-2407, Propane-1-sulfonic acid {2-fluoro-3-[5-(2-methoxy-pyrimidin-5-yl)-1H-pyrrolo[2,3-b]pyridine-3-carbonyl]-phenyl}-amide]",IC50 (A-Raf): ≤ 10 µM; IC50 (TrkA): ≤ 10 µM; IC50 (C-Raf): ≤ 10 µM; IC50 (MAP4K4): ≤ 10 µM
